Where a name gives a salt, the structure may show the parent alone. Read-outs that look alike come from different tables or passages of the source.
Columns and labels:
[1] = test system: iCell cardiomyocytes (human iPSC-derived cardiomyocytes); assay: High-content imaging of cytotoxicity and mitochondrial integrity in iPSC-CMs; format: cell-based; conditions: Homo sapiens, Cardiomyocyte, cardiomyocytes (cm)
Outline: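 Cardiomyocytes grown on gelatinized 384-well plates received fresh medium on the experiment day and were then exposed to chemicals at 0.01–100μM. Nuclei and mitochondria were labeled with Hoechst 33342 and MitoTracker™ Orange, then fixed, and imaged on an ImageXpress® Micro Confocal system. Four-parameter logistic concentration–response fits in R, with a one-standard-deviation vehicle cutoff, gave point-of-departure values.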

HUVECs = assay: High-content imaging cytotoxicity in HUVECs, 24 h; format: cell-based, human; conditions: Homo sapiens, HUVEC, 24 h, HUVEC, 24 hr
Outline: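 Confluent HUVEC monolayers, passages 1–5, received test chemicals for 24 h. Cytotoxicity was scored from triple-stain high-content images, with PODs defined by a one-SD deviation from 0.5% DMSO vehicle controls.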

[2] = 1.5 h, cam, 90 min, read-out: POD cm.cam.90min
[3] = 1.5 h, mii, 90 min, read-out: POD cm.mii.90min
[4] = 1.5 h, mito, 90 min, read-out: POD cm.mito.90min
[5] = 1.5 h, tc, 90 min, read-out: POD cm.tc.90min
[6] = 24 h, cam, 24 hrs, read-out: POD cm.cam.24hrs
[7] = 24 h, mii, 24 hrs, read-out: POD cm.mii.24hrs
[8] = 24 h, mito, 24 hrs, read-out: POD cm.mito.24hrs
[9] = 24 h, tc, 24 hrs, read-out: POD cm.tc.24hrs
[10] = cyto, read-out: POD huvec.cyto.24hr
[11] = mito, read-out: POD huvec.mito.24hr
[12] = mitoint, read-out: POD huvec.mitoint.24hr
[13] = nma, read-out: POD huvec.nma.24hr
[14] = tc, read-out: POD huvec.tc.24hr

In the case of `COc1ccc(-c2cccc(Cl)c2)cc1Cl` [4-OMe-PCB 11, 4-methoxy-3,3′-dichlorobiphenyl], the minimal effective concentration [1, 2] is reported as 33.8 µM, the minimal effective concentration [1, 3] is reported as 62.2 µM and the minimal effective concentration [1, 4] is reported as 29.1 µM. It also gave a minimal effective concentration [1, 5] of 28.6 µM, a minimal effective concentration [1, 6] of 37.2 µM and a minimal effective concentration [1, 7] of 10.8 µM. It also gave a minimal effective concentration [1, 8] of 31.1 µM, a minimal effective concentration [1, 9] of 33.4 µM and a minimal effective concentration (HUVECs; [10]) of 7.59 µM. For the same compound, the minimal effective concentration (HUVECs; [11]) was 6.19 µM, the minimal effective concentration (HUVECs; [12]) was 16 µM and the minimal effective concentration (HUVECs; [13]) was 6.39 µM. It also gave a minimal effective concentration (HUVECs; [14]) of 7.59 µM.

`COc1cc(Cl)c(-c2cc(Cl)ccc2Cl)cc1Cl` [4-OMe-PCB 52, 4-methoxy-2,2′,5,5′-tetrachlorobiphenyl] gave a minimal effective concentration [1, 2] of 27.6 µM, a minimal effective concentration [1, 3] of 57.2 µM and a minimal effective concentration [1, 4] of 18.6 µM. The minimal effective concentration [1, 5] was 33 µM, the minimal effective concentration [1, 6] was 33 µM and the minimal effective concentration [1, 7] was 5.58 µM. The minimal effective concentration [1, 8] was 35.8 µM, the minimal effective concentration [1, 9] was 35 µM and the minimal effective concentration (HUVECs; [10]) was 0.78 µM. For the same compound, the minimal effective concentration (HUVECs; [11]) was 0.55 µM, the minimal effective concentration (HUVECs; [12]) was 2.69 µM and the minimal effective concentration (HUVECs; [13]) was 2.36 µM. It also gave a minimal effective concentration (HUVECs; [14]) of 0.78 µM.

For `O=S(=O)(O)Oc1ccc(-c2cccc(Cl)c2)cc1Cl` [4-PCB 11 sulfate], the minimal effective concentration [1, 2] was 100 µM, the minimal effective concentration [1, 3] was 100 µM and the minimal effective concentration [1, 4] was 100 µM. For the same compound, the minimal effective concentration [1, 5] was 100 µM, the minimal effective concentration [1, 6] was 5.91 µM and the minimal effective concentration [1, 7] was 49.2 µM. It also gave a minimal effective concentration [1, 8] of 7.07 µM, a minimal effective concentration [1, 9] of 6.38 µM and a minimal effective concentration (HUVECs; [10]) of 48.8 µM. The minimal effective concentration (HUVECs; [11]) was 45.1 µM, the minimal effective concentration (HUVECs; [12]) was 10.8 µM and the minimal effective concentration (HUVECs; [13]) was 2.98 µM. For the same compound, the minimal effective concentration (HUVECs; [14]) was 48.8 µM.

Compound `O=S(=O)(O)Oc1cc(Cl)c(-c2cc(Cl)ccc2Cl)cc1Cl` [4-PCB 52 sulfate] has a minimal effective concentration [1, 2] of 10.8 µM, a minimal effective concentration [1, 3] of 41.2 µM and a minimal effective concentration [1, 4] of 10.6 µM. The minimal effective concentration [1, 5] was 10.8 µM, the minimal effective concentration [1, 6] was 8.2 µM and the minimal effective concentration [1, 7] was 44.6 µM. For the same compound, the minimal effective concentration [1, 8] was 8.28 µM, the minimal effective concentration [1, 9] was 8.44 µM and the minimal effective concentration (HUVECs; [10]) was 5.38 µM. The minimal effective concentration (HUVECs; [11]) was 3.31 µM, the minimal effective concentration (HUVECs; [12]) was 61.2 µM and the minimal effective concentration (HUVECs; [13]) was 33.9 µM. The minimal effective concentration (HUVECs; [14]) was 5.38 µM.

— article PMC7377239, “Cardiovascular Effects of Polychlorinated Biphenyls and Their Major Metabolites” (Environmental Health Perspectives, 2020)
